Several values for one entry are separate records, joined by “and”; a condition that tells them apart may be missing. Equal values may be shown once.
Assay: Ready-to-use formulation stability at 25° C./60% RH, 5 mg/mL (R,R)-pyrodach-2 in 10 mM Potassium Phosphate Buffer at pH 7.4, 10 mL vials
Type: physicochemical
Procedure: A scalable and commercially viable process for the manufacture of a ready-to-use formulation of (R,R)-pyrodach-2 in 10 mM buffer adjusted to a pH of 7.0-7.5 comprises the steps of: a) preparing a 10 mM aqueous solution of buffer; b) adding sufficient hydroxide base to effect neutralization of the added (R,R)-pyrodach-2 to reach a pH of about 7; c) adding (R,R)-pyrodach-2 and allowing it to dissolve; d) if necessary adding additional hydroxide to adjust the pH into a range of about 7.0-7.5; and e) filtering the solution under sterile conditions, filling the solution into glass vials, and covering it with a stopper and/or a cap. Stability data on two large batches of 5 mg/mL (R,R)-pyrodach-2 in 10 mM potassium phosphate buffer were generated. One such batch at pH=7.2 was evaluated at both 25° C./60% RH and refrigerated (2-8° C.) conditions, with data summarized in Table 4 and Table 5, respectively. […] Similar observations have been made for the ready-to-use liquid formulation at pH7.4, as illustrated in Table 6 and Table 7.
• Transfer 4564.6 mg±0.5 mg of potassium phosphate dibasic, trihydrate to a 2-L volumetric flask. • Fill flask to approximately 75% volume with water, swirl as needed to dissolve all solids. • Volumetrically transfer 32.0 mL of 1N KOH to flask. • Dilute flask to volume with water and mix well. • Record pH of final solution. This is the diluent. • Transfer 7653.1 mg±0.5 mg of (R,R)-pyrodach-2 to a compounding vessel. • Transfer 1500 mL of the diluent to the vessel and stir to dissolve solids. • Record pH of final solution. • Pass entire solution through a 0.22 μm sterile filter membrane into a sterile collection vessel. • Calculate (R,R)-pyrodach-2 solution concentration
To a […] glass beaker equipped with mechanical mixer was add 24645.5 g of sterile water for injection. With agitation 47.03 gm of dibasic potassium phosphate USP was added and the solids allowed to dissolve. To the stirred solution was added 253.8 gm of 1.00 N potassium hydroxide. Sterile water for injection USP (900.0 gm) was used as a rinse to facilitate both additions. With vigorous agitation, (R,R)-pyrodach-2 (201.87 gm) was slowly added and agitation continued until all of the solids dissolved. Sterile water for injection USP (900.0 gm) was used as a rinse to facilitate the addition. The pH was determined to be 6.7. A total of 85 mL of 1.00 N potassium hydroxide was added in 5.0 mL aliquots to adjust the pH to 7.3. The solution was sterile filtered through 0.22μ Millipore Millipack filter and aseptically filled, 10 ml top a vial in 10 mL in 10 cc Wheaton clear molded vails, stoppered with a 20 mm stopper and crimp seal capped.

O=P1(O)OP(=O)(O)[O][Pt]2([NH][C@@H]3CCCC[C@H]3[NH]2)[O]1 (stereo partly drawn) [(R,R)-pyrodach-2, (R,R)-trans-1,2-cyclohexanediamine-(dihydrogenpyrophosphato)platinum(II)]
(DACH) Pt-diaquo (~RRT 0.3) (1 Month): 0.16%
(DACH) Pt-monoaquo (~RRT 0.7) (1 Month): 1.12%
Assay (Potency) (1 Month): 98.4%
PT-112 Dimer (~RRT 4.0) (1 Month): 0.35%
RRT 0.50 (1 Month): 0.07%
RRT 0.56 (1 Month): 0.15%
RRT 0.68 (1 Month): 0.21%
RRT 0.86 (1 Month): 0.06%
RRT 3.1-3.2 (1 Month): 0.56%
Total Related Substances (1 Month): 3%
pH (1 Month): 7.4
(DACH) Pt-diaquo (~RRT 0.3) (3 Month): 0.15%
(DACH) Pt-monoaquo (~RRT 0.7) (3 Month): 0.92%
Assay (Potency) (3 Month): 99.2%
PT-112 Dimer (~RRT 4.0) (3 Month): 0.33%
RRT 0.50 (3 Month): 0.11%
RRT 0.56 (3 Month): 0.20%
RRT 0.68 (3 Month): 0.11%
RRT 0.86 (3 Month): 0.05%
RRT 3.1-3.2 (3 Month): 0.77%
RRT 3.58 (3 Month): 0.14%
Total Related Substances (3 Month): 3%
pH (3 Month): 7.4
(DACH) Pt-diaquo (~RRT 0.3) (6 Month): 0.19%
(DACH) Pt-monoaquo (~RRT 0.7) (6 Month): 0.30%
Assay (Potency) (6 Month): 96.7%
PT-112 Dimer (~RRT 4.0) (6 Month): 0.36%
RRT 0.42 (6 Month): 0.06%
RRT 0.46 (6 Month): 0.09%
RRT 0.50 (6 Month): 0.31%
RRT 0.56 (6 Month): 0.09%
RRT 0.68 (6 Month): 0.16%
RRT 0.86 (6 Month): 0.07%
RRT 3.1-3.2 (6 Month): 0.86%
RRT 3.58 (6 Month): 0.37%
RRT 4.95 (6 Month): 0.06%
Total Related Substances (6 Month): 3%
pH (6 Month): 7.4
Particulate Matter (Light Obscuration) (6 Month, first value): 87 particles particles per container
Particulate Matter (Light Obscuration) (6 Month, second value): 3 particles particles per container
(DACH) Pt-diaquo (~RRT 0.3) (9 Month): 0.14%
(DACH) Pt-monoaquo (~RRT 0.7) (9 Month): 0.79%
Assay (Potency) (9 Month): 98.2%
PT-112 Dimer (~RRT 4.0) (9 Month): 0.34%
RRT 0.42 (9 Month): 0.08%
RRT 0.46 (9 Month): 0.08%
RRT 0.50 (9 Month): 0.39%
RRT 0.56 (9 Month): 0.11%
RRT 0.68 (9 Month): 0.11%
RRT 0.86 (9 Month): 0.06%
RRT 3.1-3.2 (9 Month): 0.84%
RRT 3.41 (9 Month): 0.08%
RRT 3.58 (9 Month): 0.65%
RRT 4.95 (9 Month): 0.21%
Total Related Substances (9 Month): 4%
pH (9 Month): 7.4
(DACH) Pt-diaquo (~RRT 0.3) (12 Month): 0.11%
(DACH) Pt-monoaquo (~RRT 0.7) (12 Month): 0.92%
Assay (Potency) (12 Month): 98.0%
PT-112 Dimer (~RRT 4.0) (12 Month): 0.30%
RRT 0.42 (12 Month): 0.10%
RRT 0.46 (12 Month): 0.07%
RRT 0.50 (12 Month): 0.38%
RRT 0.56 (12 Month): 0.19%
RRT 0.68 (12 Month): 0.11%
RRT 0.86 (12 Month): 0.05%
RRT 3.1-3.2 (12 Month): 0.82%
RRT 3.58 (12 Month): 0.70%
RRT 4.95 (12 Month): 0.34%
Total Related Substances (12 Month): 4%
pH (12 Month): 7.5
Particulate Matter (Light Obscuration) (12 Month, first value): 118 particles per container
Particulate Matter (Light Obscuration) (12 Month, second value): 7 particles particles per container
(DACH) Pt-diaquo (~RRT 0.3) (15 Month): 0.13%
(DACH) Pt-monoaquo (~RRT 0.7) (15 Month): 0.92%
Assay (Potency) (15 Month): 96.8%
PT-112 Dimer (~RRT 4.0) (15 Month): 0.28%
RRT 0.42 (15 Month): 0.12%
RRT 0.46 (15 Month): 0.08%
RRT 0.50 (15 Month): 0.44%
RRT 0.56 (15 Month): 0.20%
RRT 0.68 (15 Month): 0.11%
RRT 0.86 (15 Month): 0.05%
RRT 3.1-3.2 (15 Month): 0.78%
RRT 3.58 (15 Month): 0.78%
RRT 4.95 (15 Month): 0.51%
Total Related Substances (15 Month): 4%
pH (15 Month): 7.5
(DACH) Pt-diaquo (~RRT 0.3) (18 Month): 0.12%
(DACH) Pt-monoaquo (~RRT 0.7) (18 Month): 0.78%
Assay (Potency) (18 Month): 96.9%
PT-112 Dimer (~RRT 4.0) (18 Month): 0.29%
RRT 0.42 (18 Month): 0.15%
RRT 0.46 (18 Month): 0.13%
RRT 0.50 (18 Month): 0.59%
RRT 0.56 (18 Month): 0.09%
RRT 0.68 (18 Month): 0.08%
RRT 0.86 (18 Month): 0.05%
RRT 3.1-3.2 (18 Month): 0.73%
RRT 3.44 (18 Month): 0.12%
RRT 3.58 (18 Month): 1.06%
RRT 4.95 (18 Month): 0.69%
Total Related Substances (18 Month): 5%
pH (18 Month): 7.5
(DACH) Pt-diaquo (~RRT 0.3) (21 Month): 0.11%
(DACH) Pt-monoaquo (~RRT 0.7) (21 Month): 1.13%
Assay (Potency) (21 Month): 96.3%
PT-112 Dimer (~RRT 4.0) (21 Month): 0.28%
RRT 0.42 (21 Month): 0.16%
RRT 0.46 (21 Month): 0.12%
RRT 0.50 (21 Month): 0.60%
RRT 0.56 (21 Month): 0.17%
RRT 0.68 (21 Month): 0.12%
RRT 3.1-3.2 (21 Month): 0.75%
RRT 3.41 (21 Month): 0.07%
RRT 3.44 (21 Month): 0.05%
RRT 3.58 (21 Month): 1.12%
RRT 4.95 (21 Month): 0.89%
Total Related Substances (21 Month): 6%
pH (21 Month): 7.4
(DACH) Pt-diaquo (~RRT 0.3) (24 Month): 0.11%
(DACH) Pt-monoaquo (~RRT 0.7) (24 Month): 0.85%
Assay (Potency) (24 Month): 94.6%
PT-112 Dimer (~RRT 4.0) (24 Month): 0.28%
RRT 0.42 (24 Month): 0.18%
RRT 0.46 (24 Month): 0.12%
RRT 0.50 (24 Month): 0.70%
RRT 0.56 (24 Month): 0.17%
RRT 0.68 (24 Month): 0.13%
RRT 0.86 (24 Month): 0.05%
RRT 3.1-3.2 (24 Month): 0.72%
RRT 3.29 (24 Month): 0.06%
RRT 3.44 (24 Month): 0.05%
RRT 3.58 (24 Month): 1.07%
RRT 4.95 (24 Month): 1.12%
Total Related Substances (24 Month): 6%
pH (24 Month): 7.4
(DACH) Pt-diaquo (~RRT 0.3) (Initial): 0.16%
(DACH) Pt-monoaquo (~RRT 0.7) (Initial): 0.84%
Assay (Potency) (Initial): 98.1%
PT-112 Dimer (~RRT 4.0) (Initial): 0.34%
RRT 0.50 (Initial): 0.06%
RRT 0.56 (Initial): 0.08%
RRT 0.68 (Initial): 0.09%
RRT 3.1-3.2 (Initial): 0.11%
Total Related Substances (Initial): 2%
pH (Initial): 7.4
Particulate Matter (Light Obscuration) (Initial, first value): 30 particles particles per container and 30 particles per particles per container
Particulate Matter (Light Obscuration) (Initial, second value): 11 particles particles per container and 11 particles per particles per container
